Assay results published in US4153729A, “Therapeutically useful cysteinol and homocysteinol derivatives” (Recherches Pharmaceutiques et Scientifiques, priority 1977, dated 1979).
Counter-ions that a name gives are not always drawn.

What was measured:
[1] = Solubility of the isolated product; assay type: physicochemical; conditions: in words
rats = assay: Hypolipemic activity: hyperlipidemia experimentally induced by Triton in rats; assay type: in vivo; parameters: key: NS: non-significant result; conditions: 18 h after i.v. Triton; for Hypolipemic activity, percentages of diminution: Triglycerides / Hypolipemic activity, percentages of diminution: total lipids / Hypolipemic activity, percentages of diminution: β-lipoprotein / Hypolipemic activity, percentages of diminution: Cholesterol: single p.o. dose mg/kg: clofibrate 225, Ex 1, 2: 500, Ex 3: 270, Ex 4: 127, Ex 5: 175, Ex 6: 310, Ex 12: 250, Ex 13: 140, Ex 14: 95; for Hypolipemic activity, percentages of diminution: optical serum density: serum at 691 nanometres, single p.o. dose mg/kg: Ex 1, 2: 500, Ex 3: 270, Ex 4: 127, Ex 5: 175, Ex 6: 310, Ex 12: 250, Ex 13: 140, Ex 14: 95
Method: The technique used to show these properties has been described by M. Friedman and S. E. Byers in : J. Exptl. Med. 97, 117, 1953 and likewise by S. Garattini and colleagues in Arzneim. Forsch. 9, 206, 1959.
The rats received intravenously 0.3 ml per 100 grams of body weight of a solution of Triton 13 39 at 10%. The products to be tested are administered simultaneously orally at a dose corresponding to a tenth of their LD 50, determined orally in mice, without the dose used exceeding 500 mg/kg.
Eighteen hours after the injection of Triton the animals are sacrificed by section of the carotid and the blood is collected to determined the lipid parameters : cholesterol (auto-analyser Technicon AA II Lieberman Burchard), beta- lipoproteins, (Burnstein), total lipids (Chabrol and Charonnat), triglycerides (Boehringer enzymatic).
The optical density of the serum at 691 nanometres is measured in each case. Each product was tested on ten animals. The statistic calculations were carried out on the averages affected by their divergence from the average using the Student test.
The reference compound used is clofibrate.

[2] = Oral LD 50 determined according to the method of Karber and Behrens on mice; conditions: mouse, in vivo, female mice 24 to 26 g, read-out: LD 50 per os
Method: The products of the invention are hardly toxic.
The oral LD 50 (see the table below) was determined according to the method of Karber and Behrens (Arch. Exp. Pathol. Pharm. 177, 1935, page 379) on mice EVIC CEBA .female. Swiss EOPS NMRI Han of 24 to 26 g weight.

SMILES	solubility [1]	Hypolipemic activity, percentages of diminution: Triglycerides (rats)	Hypolipemic activity, percentages of diminution: total lipids (rats)	Hypolipemic activity, percentages of diminution: β-lipoprotein (rats)	Hypolipemic activity, percentages of diminution: optical serum density (rats)	LD50 [2] [mg/kg]	Hypolipemic activity, percentages of diminution: Cholesterol (rats)
NC(CO)CSCSCC(N)CO (centres unmarked) [Example 1, 2,8-diamino-4,6-dithia-1,9-nonanediol]	soluble in the cold in water, alcohol, ether	NS	NS	NS	NS	> 5000	
NC(CO)CCSCCCCCCCCCCSCCC(N)CO (centres unmarked) [Example 14, 2,19-diamino-5,16-dithia-1,20-eicosanediol]	soluble in water and alcohols	NS	NS		NS	950	NS
NC(CO)CCSCCCCCCCCSCCC(N)CO (centres unmarked) [Example 13, 2,17-diamino-5,14-dithia-1,18-octadecanediol]	soluble in water and alcohols					1400	
CCOC(=O)C(C)(C)Oc1ccc(Cl)cc1 [Clofibrate, reference compound]						2300	
NC(CO)CSCCCCCCSCC(N)CO (centres unmarked) [Example 3, 2,13-diamino-4,11-dithia-1,14-tetradecanediol]	soluble in water, alcohols, ether					2700	
NC(CO)CSCCCCCCCCCCSCC(N)CO (centres unmarked) [Example 5, 2,17-diamino-4,15-dithia-1,18-octadecanediol]			NS	NS		1750	
NC(CO)CCSCCCCCSCCC(N)CO (centres unmarked) [Example 11, mandelate of 2,14-diamino-5,11-dithia-1,15-pentadecanediol]	Soluble in water, alcohols, DMF						
NC(CO)CSCCCCCCCCSCC(N)CO (centres unmarked) [Example 4, 2,15-diamino-4,13-dithia-1,16-hexadecanediol]	soluble in water, alcohols, ether		NS			1280	
NC(CO)CCSCCSCCC(N)CO (centres unmarked) [Example 9, neutral oxalate of 2,11-diamino-5,8-dithia-1,12 dodecanediol]	soluble in water and alcohols						
NC(CO)CCSCSCCC(N)CO (centres unmarked) [Example 8, neutral oxalate of 2,10-diamino-5,7-dithia-1,11 undecanediol]	Soluble in water and alcohols						
NC(CO)CCSCCCCCCSCCC(N)CO (centres unmarked) [Example 12, 2,15-diamino-5,12-dithia-1,16-hexadecanediol]	soluble in water and alcohols	NS	NS		NS	2500	NS
NC(CO)CCSCCCCSCCC(N)CO (centres unmarked) [Example 10, mandelate of 2,13-diamino-5,10-dithia-1,14-tetradecanediol]	soluble in water, alcohols and dimethylformamide						
NC(CO)CSCCCCSCC(N)CO (centres unmarked) [Example 2, 2,11-diamino-4,9-dithia-1,12-dodecanediol]	soluble in water, alcohols, ether		NS	NS	NS	5000	NS
NC(CO)CSSCC(N)CO (centres unmarked) [Example 6, 2,7-diamino-4,5-dithia-1,8-octanediol]	soluble in water, methanol, ethanol					3100	
